Measured values as given in patent US20240308990A1, “CRYSTAL FORM OF ENTRECTINIB AND PREPARATION METHOD THEREFOR” (QILU PHARMACEUTICAL CO., LTD., priority 2021, published 2024).
≈ marks a conversion by molar mass, not a printed value. Where two headings read alike, the source gives them in different places.

Columns and labels:
[1] = Preparation stability of crystal forms (mixing and slurrying, X-RPD); type: physicochemical; conditions: for Converted crystal form: 0.1 g mixed with 0.1 g crystal form A of Example 2, slurried in acetone/water at room temperature for 10 h
Description: The mixing and slurring method was as follows: 0.1 g of each of the two crystal forms to be mixed was weighed and added into a single-necked flask. 2 mL of acetone and 1 mL of water were added. The mixture was stirred and slurried at room temperature for 10 h, filtered, and dried in air at room temperature to obtain crystals. The crystal forms were determined by X-RPD.

[2] = Crystal microscopic morphology by scanning electron microscope; type: physicochemical
Description: The experimental method was as follows: an appropriate amount of test sample was taken, uniformly spread on a conductive adhesive tape, sprayed with gold, and observed under an electron microscope.
(§1) The determination results are as follows.

[3] = Crushing, static electricity and fluidity test; type: physicochemical; conditions: for Static electricity: reference forms: after crushing
Description: as §1

[4] = Chemical stability test (affecting factors, HPLC purity); type: physicochemical; conditions: for Chemical stability (in words): after a 10-day affecting factor test
Description: For the specific method for testing the stability, reference could be made to high performance liquid chromatography in General Chapter 0512, Chinese Pharmacopoeia, Volume IV, 2015 Edition.

[5] = Crystal form stability test (affecting factors); type: physicochemical; conditions: for Crystal form stability (in words): after a 10-day affecting factor test
Description: The experimental method was as follows: a ground sample (100 mg) was filled in a groove of a glass plate, the plane of the sample was made to the same level as the glass surface by using a glass slide, the sample was placed in a PANalytical X-ray powder diffractometer, and a 40 kV and 40 mA copper X-ray source was used, with a scanning range of 3-45° (2θ) and a scanning rate of 8°/min. The scanning error is typically ±0.2 degrees (2θ).

[6] = Solubility comparison of crystals; type: physicochemical; conditions: for Solubility in 95% ethanol / Solubility in aqueous solution with pH = 1 / solubility at 20 min: 25° C., dissolution time 20 min; for Solubility compared with crystal form 2 and crystal form 4: 95% ethanol and aqueous solution with pH=1; for solubility at 20 min: thermodynamic from solid
Description: • Dissolution temperature: 25° C. • Dissolution time: 20 min

[7] = background statement; cited from earlier work
[8] = High humidity condition 90% RH, 10 days
[9] = High temperature condition 60° C., 10 days
[10] = Light condition 5000 lux/h, 10 days

Row | Structure (SMILES) | Converted crystal form [1] | electron microscopy results of the crystal: length of larger crystals/particles [2] | electron microscopy results of the crystal: shape and size uniformity [2] | Fluidity [3] | Purity (%) ([4]; 0 day) | Purity (%) [4, 8] [%] | Purity (%) [4, 9] [%] | Purity (%) [4, 10] [%] | Crystal form found ([5]; 0 day) | Crystal form found [5, 8] | Crystal form found [5, 9] | Crystal form found [5, 10] | Solubility in 95% ethanol [6] [mg/mL] | Solubility in aqueous solution with pH = 1 [6] [mg/mL] | Static electricity [3] | further results
1 | CN1CCN(c2ccc(C(=O)Nc3n[nH]c4ccc(Cc5cc(F)cc(F)c5)cc34)c(NC3CCOCC3)c2)CC1 [Crystal form AZT-A of Reference Example 4] [entrectinib] | Crystal form A | about 700 μm | Irregular bulk-shaped, non-uniform | poor fluidity |  |  |  |  |  |  |  |  |  |  | strong static electricity after crushing, and | Fluidity ([3]; listed as crystal form AZT-A): poor fluidity; Static electricity ([3]; listed as crystal form AZT-A): relatively strong static electricity after being crushed
2 | CN1CCN(c2ccc(C(=O)Nc3n[nH]c4ccc(Cc5cc(F)cc(F)c5)cc34)c(NC3CCOCC3)c2)CC1 [Crystal form 2 of Reference Example 2, entrectinib] | Crystal form A | about 85 μm | Sheet-shaped, fragile, non-uniform | crushing, and poor fluidity | 99.34 | 99.33 | 99.34 | 99.33 | form 2 | form 2 | form 2 | form 2 | 21.1 (≈ 37.6 mM) | 19.1 | relatively strong static electricity after | Fluidity ([3]; listed as crystal form 2): poor fluidity; Static electricity ([3]; listed as crystal form 2): relatively strong static electricity after being crushed; Solubility (in words) [7]: poor solubility
3 | CN1CCN(c2ccc(C(=O)Nc3n[nH]c4ccc(Cc5cc(F)cc(F)c5)cc34)c(NC3CCOCC3)c2)CC1 [Crystal form 4 of Reference Example 3, entrectinib] | Crystal form A |  |  |  | 99.29 | 99.29 | 99.28 | 99.28 | form 4 | form 4 | form 4 | form 4 | 20.5 (≈ 36.6 mM) | 18.8 |  | 
4 | CN1CCN(c2ccc(C(=O)Nc3n[nH]c4ccc(Cc5cc(F)cc(F)c5)cc34)c(NC3CCOCC3)c2)CC1 [Crystal form 1 of Reference Example 1, entrectinib] |  |  |  |  | 99.21 | 99.20 | 99.20 | 99.19 | form 1 | form 1 | form 2 | form 1 |  |  |  | Crystal form stability (in words) ([5]; listed as crystal form 1 in Reference Example 1): unstable and shows crystal form conversion under a high temperature condition; Crystal form stability (in words) [7]: unstable and is easy to be converted into another crystal form
5 | CN1CCN(c2ccc(C(=O)Nc3n[nH]c4ccc(Cc5cc(F)cc(F)c5)cc34)c(NC3CCOCC3)c2)CC1 [Crystal form A of Example 2, N-[5-(3,5-difluorobenzyl)-1H-indazol-3-yl]-4-(4-methylpiperazin-1-yl)-2-[(tetrahydro-2H-pyran-4-yl)amino]benzamide] |  | ~20 μm | Rod-shaped, relatively uniform size, | good fluidity | 99.92 | 99.92 | 99.91 | 99.91 | form A | form A | form A | form A |  |  |  | Chemical stability (in words) [4]: good chemical stability; Crystal form stability (in words) [5]: good crystal form stability; Solubility compared with crystal form 2 and crystal form 4 [6]: better solubility; solubility at 20 min ([6]; 95% ethanol, 25 °C, organic solvent or mixture, read-out: Solubility in 95% ethanol): 28.4 mg/mL (≈ 50.7 mM); solubility at 20 min ([6]; aqueous solution with pH 1, 25 °C, pH 1, simulated gastric fluid, read-out: Solubility in aqueous solution with pH = 1): 22.6 mg/mL (≈ 40.3 mM); Crystal conversion in acetone/water slurry (in words) ([1]; acetone/water system, room temperature, 10 h): will not be subjected to crystal conversion; Fluidity ([3]; listed as crystal form A): good fluidity

Further lines, with some results ahead:

Row | Converted crystal form [1] | electron microscopy results of the crystal: length of larger crystals/particles [2] | electron microscopy results of the crystal: shape and size uniformity [2] | Fluidity [3] | Purity (%) ([4]; 0 day) | Purity (%) [4, 8] [%] | Purity (%) [4, 9] [%] | Purity (%) [4, 10] [%] | Crystal form found ([5]; 0 day) | Crystal form found [5, 8] | Crystal form found [5, 9] | Crystal form found [5, 10] | Solubility in 95% ethanol [6] [mg/mL] | Solubility in aqueous solution with pH = 1 [6] [mg/mL] | Structure (SMILES) | Static electricity [3] | further results
6 |  | ~10 μm | Rod-shaped, relatively uniform size, | good fluidity | 99.91 | 99.90 | 99.91 | 99.91 | form B | form B | form B | form B | 26.2 (≈ 46.7 mM) | 21.0 | CN1CCN(c2ccc(C(=O)Nc3n[nH]c4ccc(Cc5cc(F)cc(F)c5)cc34)c(NC3CCOCC3)c2)CC1 [Crystal form B of Example 5, N-[5-(3,5-difluorobenzyl)-1H-indazol-3-yl]-4-(4-methylpiperazin-1-yl)-2-[(tetrahydro-2H-pyran-4-yl)amino]benzamide] |  | Chemical stability (in words) [4]: good chemical stability; Crystal form stability (in words) [5]: good crystal form stability; Solubility compared with crystal form 2 and crystal form 4 [6]: better solubility; Fluidity ([3]; listed as crystal form B): good fluidity
7 | Crystal form A | more than about 1000 μm | Irregular bulk-shaped, non-uniform | poor fluidity |  |  |  |  |  |  |  |  |  |  | CN1CCN(c2ccc(C(=O)Nc3n[nH]c4ccc(Cc5cc(F)cc(F)c5)cc34)c(NC3CCOCC3)c2)CC1 [Crystal form AZT-B of Reference Example 5] [entrectinib] | strong static electricity after crushing, and | Fluidity ([3]; listed as crystal form AZT-B): poor fluidity; Static electricity ([3]; listed as crystal form AZT-B): relatively strong static electricity after being crushed
8 | Crystal form A | more than about 1000 μm | Irregular bulk-shaped, non-uniform | poor fluidity |  |  |  |  |  |  |  |  |  |  | CN1CCN(c2ccc(C(=O)Nc3n[nH]c4ccc(Cc5cc(F)cc(F)c5)cc34)c(NC3CCOCC3)c2)CC1 [Crystal form AZT-E of Reference Example 6] [entrectinib] | strong static electricity after crushing, and | Fluidity ([3]; listed as crystal form AZT-E): poor fluidity; Static electricity ([3]; listed as crystal form AZT-E): relatively strong static electricity after being crushed
